How the values were obtained:
Assay type in all cases: physicochemical
[1] = Induction of ROS generation in water/cremophor/DMF solution by AUR-based fluorescence assay; conditions: buffer
[2] = Induction of ROS generation in water/cremophor/DMF solution by SOSG-based fluorescence assay; conditions: buffer
[3] = Induction of ROS generation in MeOH/PBS solution by AUR-based fluorescence assay; conditions: buffer
[4] = Induction of ROS generation in RPMI-1640 cell culture media/DMSO/cremophor solution by SOSG-based fluorescence assay
[5] = Induction of ROS generation in RPMI-1640 cell culture media/DMSO/cremophor solution by AUR-based fluorescence assay
[6] = Induction of ROS generation in MeOH/PBS solution by SOSG-based fluorescence assay; conditions: buffer

Measured: Activity

CC[C@H]1c2cc3[nH]c4c(c3C)C(=O)[C@H](C(=O)OC)c4c3nc(cc4[nH]c(cc(n2)[C@@H]1C)c(C(C)=O)c4C)[C@@H](C)[C@@H]3CCC(=O)NCCS(=O)(=O)O
Active: all assays above

CC[C@H]1c2cc3[nH]c(c(CC(=O)OC)c4nc(cc5[nH]c(cc(n2)[C@@H]1C)c(C(C)=O)c5C)[C@@H](C)[C@@H]4CCC(=O)NCCS(=O)(=O)O)c(C(=O)NCCS(=O)(=O)O)c3C
Active: all assays above

CC[C@H]1c2cc3[nH]c4c(c3C)C(=O)[C@H](C(=O)OC)c4c3nc(cc4[nH]c(cc(n2)[C@@H]1C)c(C(C)=O)c4C)[C@@H](C)[C@@H]3CCC(=O)OCC[N+](C)(C)C
Active: all assays above

CC[C@H]1c2cc3[nH]c(c(CC(=O)OC)c4nc(cc5[nH]c(cc(n2)[C@@H]1C)c(C(C)=O)c5C)[C@@H](C)[C@@H]4CCC(=O)OCC[N+](C)(C)C)c(C(=O)NCCS(=O)(=O)O)c3C
Active: all assays above

CC[C@H]1c2cc3[nH]c4c(c3C)C(=O)[C@H](C(=O)OC)c4c3nc(cc4[nH]c(cc(n2)[C@@H]1C)c(C(C)=O)c4C)[C@@H](C)[C@@H]3CCC(=O)OC
Active: all assays above

CC[C@H]1c2cc3[nH]c(c(CC(=O)OC)c4nc(cc5[nH]c(cc(n2)[C@@H]1C)c(C(C)=O)c5C)[C@@H](C)[C@@H]4CCC(=O)OC)c(C(=O)NCCS(=O)(=O)O)c3C
Active: all assays above

CC[C@H]1c2cc3[nH]c4c(c3C)C(=O)[C@H](C(=O)OC)c4c3nc(cc4[nH]c(cc(n2)[C@@H]1C)c(C(C)=O)c4C)[C@@H](C)[C@@H]3CCC(=O)O
Active: all assays above

CC[C@H]1c2cc3[nH]c(c(CC(=O)OC)c4nc(cc5[nH]c(cc(n2)[C@@H]1C)c(C(C)=O)c5C)[C@@H](C)[C@@H]4CCC(=O)O)c(C(=O)NCCS(=O)(=O)O)c3C
Active: all assays above

Source: ChEMBL document CHEMBL3108669, “Modulation of reactive oxygen species photogeneration of bacteriopheophorbide a derivatives by exocyclic E-ring opening and charge modifications” (J Med Chem, 2014)
